Reference: US20060258735A1, “1,3-Bis-(substituted-phenyl)-2-propen-1-ones and their use to treat VCAM-1 mediated disorders” (priority 2000, published 2006)
Like-named read-outs stand apart in the source and are kept apart here.

What was measured:
VCAM-1 = test: In vitro VCAM-1 assay (TNF stimulated vascular endothelial cells); format: cell-based; conditions: Endothelial cell
Description: The ability of a compound described herein to inhibit the expression of VCAM-1 in a host can be assessed using any known method, including that described in detail below.
Two to four confluent P150 plates were trypsinized and the cells transferred to a 50 mL conical centrifuge tube. The cells were pelleted, resuspended and counted using the trypan blue exclusion method.
Cells were resuspended at a concentration of 36,000 cells/mL and 1 mL was aliquoted per well.
Cells were split into 24 well tissue culture plates. The cells in each well should be approximately 90-95% confluent by the following day. Cells should not be older than passage 8.
Compounds were initially screened at 50 μM and 10 μM. A 50 mM stock solution for each compound was prepared in culture medium. The stock solution was diluted to 5 mM and 1 mM. When 10 μL of the 5 mM solution was added to the well (1 mL medium/well), the final concentration was 50 μM. Adding 10 μL of the 1 mM solution to the well provides a final concentration of 10 μM.
Compounds which will not go into solution in culture medium were resuspended in DMSO at a concentration of 25 mM. The stock solution was then diluted to the final concentration in culture medium. The old medium was aspirated and 1 mL of the new medium with the compound was added. For example, if the final concentration was 50 μM, the 2 μL of the 25 mM stock was added per mL of culture medium. […] was diluted for lower concentrations.
The compounds were added to the plate (each compound is done in duplicate). One plate was prepared for VCAM expression and one plate was prepared for ICAM expression.
Immediately after the compounds weree added, TNF was added to each well 100 units/mL TNF was usually added to each well. Since each lot of TNF varies in the number of units, each new lot was titrated to determine the optimum concentration. Therefore this concentration changed. If 100 units/mL was being used, TNF was dilted to 10 units/μL and 10 μL added to each well.
The plates were incubated at 37° C., 5% CO2 overnight (approximately 16 hours). The next day the plates were checked under the microscope to see if there were any visual signs of toxicity. Records were made of any cell death, debris, or morphology changes, as well as insoluble compounds (particulate or turbity).
The degree of inhibition of the compounds of formula (I) was determined by the assays.

paw edema = test: Paw edema model (delayed type hypersensitivity, metBSA); format: in vivo; conditions: 50 mg/kg/dose intraperitoneal at -24, -2 and +6 hrs around metBSA challenge; Balb/C mice; 24 hours after challenge; FIG. 3
Description: Balb/C mice (n=5) were sensitized intradermally on day 0 with methylated BSA (metBSA). They were then challenged with metBSA on day 7 in the right hind paw. The animals were sacrificed 24 hours later and the left and right hind paws weighed. The left hindpaw weight is subtracted from the right hind paw to give the paw weight increase. The test compound was administered by intraperitoneal injection −24, −2 and +6 hrs around the time of metBSA challenge.

eosinophil recruitment = test: Mouse peritonitis model (ovalbumin, eosinophil recruitment); format: in vivo; conditions: 50 mg/kg/dose subcutaneous at -24, -2, +2 and +6 hrs around ovalbumin challenge; Balb/C mice; 48 hrs post-challenge; FIG. 2
Description: (§1) Balb/C mice (n=10) were sensitized to ovalbumin on days 0 and 7 with a subcutaneous injection of ovalbumin absorbed in aluminum hydroxide. They were then challenged with an intraperitoneal injection of ovalbumin and sacrificed 48 hrs post-challenge. Peritoneal fluid was then collected and spun down onto slides. Slides were stained with DiffQuik and a differential performed. The test compound was administered by subcutaneously injection −24, −2, +2 and +6 hrs around the time of ovalbumin challenge. This is a model of allergic inflammation as eosinophils are the major leukocyte recruited into the peritoneum.
as §1, with “compound wase” for “compound was”

[1] = degree of inhibition of VCAM-1 expression, TNF stimulated endothelial cells, approximately 16 hours, read-out: VCAM-1 (µM)
[2] = TNF stimulated cells, overnight (approximately 16 hours), read-out: VCAM-1 IC50

SMILES	IC50 (VCAM-1; [1]) [µM]	melting point [°C]	IC50 (VCAM-1; [2]) [µM]	also measured
COc1cc2c(cc1OC)C(=O)C(=Cc1cc(OC)c(OC)c(-c3cccs3)c1)CC2 [Example 54]	2	192 to 205	–	–
COc1ccc(-c2cccs2)cc1C=C1Cc2cc(OC)c(OC)cc2C1=O [Example 55]	> 50	164 to 172	–	–
COc1cc(C=C2Cc3cc(-c4cccs4)ccc3C2=O)cc(OC)c1OC [Example 53]	> 50	216 to 222	–	–
COc1cc(OC)c(-c2cc3ccccc3s2)cc1/C=C/C(=O)c1cc(OC)c(OC)c(OC)c1 [3-[5-(benzo[b]thien-2-yl)-2,4-dimethoxyphenyl]-1-(3,4,5-trimethoxyphenyl)-2-propen-1-one]	–	–	–	inhibition of paw edema (paw weight increase) (paw edema): inhibition of paw edema; inhibition of eosinophil recruitment (percent eosinophils in the peritoneal fluid) (eosinophil recruitment): inhibition of eosinophil recruitment

Second part, led by results:

IC50 (VCAM-1; [1]) [µM]	melting point [°C]	IC50 (VCAM-1; [2]) [µM]	SMILES	also measured
–	–	8.3	COc1cc(OCC(=O)O)c(C=CC(=O)c2cc(OC)c(OC)c(OC)c2)cc1-c1cc2ccccc2s1 [3-[5-(benzo[b]thien-2-yl)-2-carboxymethoxy-4-methoxyphenyl]-1-(3,4,5-trimethoxyphenyl)-2-propen-1-one]	–
–	–	4	COc1cc(C=CC(=O)c2cc(OC)c(OC)c(OC)c2)cc(Br)c1OC [3-(3-bromo-4,5-dimethoxyphenyl)-1-(3,4,5-trimethoxyphenyl)-2-propen-1-one]	–
